Experimental data published in US10004761B2, “Malodor neutralizing composition” (priority 2016, dated 2018).

What was measured:
[1] = tested on: hyaluronidase Type IV-S, from bovine testes (Hyase); experiment: Dische's assay (Method II) of HA degradation by Hyase with inhibitors; assay type: biochemical
Protocol: Method II (Dische's assay; detection of uronic acid residues): Assays were performed by following the procedures described in Dische Z. [J. Biol. Chem., 1947, 167, p. 189-198] and Dische and Rothschild [Anal Biochem., 1967, 21(1), p. 125-30]. In these assays, molecules containing the uronic acid residues found in the precipitate formed upon CPC additions, are re-solubilized and products formed by -sulfuric acid hydrolysis of these fragments are detected by a spectrophotometric assay employing carbazole chromagen reagent. In addition, small residues degraded off the HA chains that have not precipitated with the addition of CPC, can be detected by the carbazole assay performed on the solution, so as to detect all of the uronic acid content.
Evaluation of HA degradation by this method was generally performed as follows:
20 μL of a NAC stock solution, and 20 μL of the stock solutions of the other inhibitors were used in the assay.
200 μL of the HA stock solution were placed in each tube, for achieving a 1 mg HA per tube.
Twenty (20) μL of hyase and 20 μL of NAC were combined and incubated for 2 hours. Then 200 μL of HA (1 mg) were added to each tube and the mixture was incubated at room temperature for 24 hours. Thereafter, the tubes were heated for 2 minutes in boiling water bath and 8 mL of doubled distilled water were added to the tubes as preparation for the Dische's assay.
As per Dische's Assay, 100 μL of 3N NaCl and 0.5 mL of 10% CPC (cetylpyridinium chloride) were thereafter added to each tube and the mixture was incubated at 37° C. until flocculation-turbidity (resulting from precipitation of HA+CPC) could be observed. The mixture was centrifuged for 10 minutes at 10,000 g at room temperature, and the supernatant was thereafter separated from the obtained pellet.
The pellet was dissolved in 1 ml of CaCl2, and the obtained solution was incubated at 37° C. until complete dissolution of the pellet is obtained. A 2:1 v/v ethanol/ether mixture (8 ml) was thereafter added, and the mixture was intensively stirred (by vortex) and kept at −20° C. overnight. The obtained pellet was collected following a centrifugation for 10 minutes at 10,000 g. Then, distilled water (1 mL) was added to solubilize the pellet, followed by addition of 0.2 ml Carbazole 1%. The mixture was stirred thoroughly, and concentrated sulfuric acid (6 mL) was thereafter added.
The samples were transferred into tight closed tubes, placed for 10 minutes in a boiling water bath, and was thereafter cooled in ice until it reached room temperature.
The pink-violet color developed by the chromogen was measured using a spectrophotometer at 527 nm.
Ditch assay, as described hereinabove (Method II) was performed while using the following Hyase inhibitors:
The experiment was run at room temperature (23° C.). Hyase and Inhibitors were incubated first for 2 hours prior to the addition of HA. Blank tubes included no substrate (HA) and Control tubes included no enzyme, no inhibitor and HA (200 μL). Tubes 5 and 6 contained HA and Hyase with no inhibitor. Standard Solutions with no enzyme and no inhibitor and HA 50 μL and 10 μL were also tested, for calibration. % HA cleaved denotes the weight percent of HA that was degraded. % HA residue denotes the weight percent of non-degraded HA, and represents the % of Hyase inhibition.

[2] = Solubility of NAC crystals in water; assay type: physicochemical
Protocol: The solubility of NAC crystals in water was measured for different NAC concentrations, at different temperatures.

[3] = tested on: hyaluronidase Type IV-S, from bovine testes (Hyase); experiment: HA gelation consistency (Method III) in the presence of Hyase; assay type: biochemical; settings: for Consistency after 24 h incubation at 37° C.: HA 1% 2 mL
Protocol: Method III (Viscosity of HA): HA at low concentrations (e.g., 1%) in aqueous solution forms a viscous colloidal hydrogel solution, which yields semi-solid gel particles at room temperature and a solid gel at 4° C.
HA degradation was evaluated using Method III, as described hereinabove.
HA state of gelation was studied in the presence of NAC and various HA-degrading enzymes, using the following Stock solutions:
The tested enzyme (50 μL) was placed in a tube, NAC (50 μL of the Stock solution, final concentration of about 3.3%) was added and the mixture was incubated for 2 hours at room temperature (23° C.). Then, 2 ml of HA 1% were added to each tube and tubes were further incubated at room temperature for additional 24 hours.
In a second set of experiments, NAC (50 μL of the Stock solution) was added to a tube containing 2 ml of HA 1%; and the tubes were incubated for 2 hours at room temperature. Then, the HA-degrading enzyme was added and tubes were incubated at room temperature for additional 24 hours. In control tubes 9 and 10 (containing only HA), 50 μL of water were added to achieve the same volume as the other tested tubes.
In another set of experiments, the effect of NAC powder, (at a final concentration of 20%), on HA gelation in the presence of Hyase or Chondroitinase ABC was tested. HA (2 ml of 1%), and the tested enzyme were incubated with and without 400 mg of NAC powder, at 4° C. and at 37° C.
HA gelation in the presence of various concentrations of NAC and/or various concentrations of Hyase was further studies. […] The solutions were maintained for 24 hours at room temperature, and thereafter Hyase, at various concentrations, was added. Then the mixtures were incubated at room temperature. The enzyme was absent in the control tubes.
In another set of experiments, the effect of various NAC concentrations on gelation of HA 1% (2 mL in each tube) in the presence of Hyase (50 μL of Stock solution) following incubation at 37° C., was tested, using the same procedure as described hereinabove.

## CC(=O)N[C@@H](CS)C(=O)O [NAC, N-acetyl L-cysteine]
[1]; 20 μL inhibitor stock incubated 2 h with 20 μL Hyase, then HA 200 μL, room temperature 24 h
  % HA degraded: 0%
[1]; NAC final concentration of the incubate 2%, Tubes 11-12
  inhibition of HA degradation: completely inhibited HA degradation
[1]; derived from Table 1
  % of inhibition of HA degradation: 100%
[1]; represents % of Hyase inhibition, 20 μL inhibitor, 20 μL Hyase, HA 200 μL, room temperature 24 h
  % HA intact (precipitated): 100%
[2]; NAC concentration 10%, at 4° C. (storage)
  Clearance (solubility of NAC crystals in water): Clear
[2]; NAC concentration 10%, at 23° C., room temperature
  Clearance (solubility of NAC crystals in water): Clear
[2]; NAC concentration 10%, at 34-37° C., skin and body temperature
  Clearance (solubility of NAC crystals in water): Clear
[2]; NAC concentration 12%, at 4° C. (storage)
  Clearance (solubility of NAC crystals in water): Clear
[2]; NAC concentration 12%, at 23° C., room temperature
  Clearance (solubility of NAC crystals in water): Clear
[2]; NAC concentration 12%, at 34-37° C., skin and body temperature
  Clearance (solubility of NAC crystals in water): Clear
[2]; NAC concentration 14%, at 4° C. (storage)
  Clearance (solubility of NAC crystals in water): Clear
[2]; NAC concentration 14%, at 23° C., room temperature
  Clearance (solubility of NAC crystals in water): Clear
[2]; NAC concentration 14%, at 34-37° C., skin and body temperature
  Clearance (solubility of NAC crystals in water): Clear
[2]; NAC concentration 16%, at 4° C. (storage), cell wraps: Minimal crystals appearance
  Clearance (solubility of NAC crystals in water): Minimal crystals
[2]; NAC concentration 16%, at 23° C., room temperature
  Clearance (solubility of NAC crystals in water): Clear
[2]; NAC concentration 16%, at 34-37° C., skin and body temperature
  Clearance (solubility of NAC crystals in water): Clear
[2]; NAC concentration 18%, at 4° C. (storage)
  Clearance (solubility of NAC crystals in water): More crystals
[2]; NAC concentration 18%, at 23° C., room temperature, cell wraps: Minimal crystals appearance
  Clearance (solubility of NAC crystals in water): Minimal
[2]; NAC concentration 18%, at 34-37° C., skin and body temperature
  Clearance (solubility of NAC crystals in water): Clear
[2]; NAC concentration 20%, at 4° C. (storage)
  Clearance (solubility of NAC crystals in water): More crystals
[2]; NAC concentration 20%, at 23° C., room temperature
  Clearance (solubility of NAC crystals in water): More crystals
[2]; NAC concentration 20%, at 34-37° C., skin and body temperature
  Clearance (solubility of NAC crystals in water): Clear
[2]; at 23° C. and at lower temperatures
  NAC concentration completely soluble in water: ≤ 15%
[2]; at room temperature, presumed from crystals in the HA gel tubes
  concentration at which NAC solubilization reaches saturation: 20%
[2]; from 34° C. and up
  NAC concentration completely soluble in water: ≥ 20%
[3]; HA 1%, Hyase 50 μL, 37° C. 24 h
  NAC concentration that fails to inhibit HA degradation: lower than 1%
[3]; HA 1%, Hyase 50 μL, at 37° C.
  NAC concentration range with the best effect: 4-16%
[3]; NAC 0.25% (5 mg), Hyase 50 μL
  Consistency after 24 h incubation at 37° C.: Fluid liquid (for a fluid liquid were in the range of 1-500 mPa S)
[3]; NAC 0.5% (10 mg), Hyase 50 μL
  Consistency after 24 h incubation at 37° C.: Fluid liquid (for a fluid liquid were in the range of 1-500 mPa S)
[3]; NAC 1.0% (20 mg), Hyase 50 μL
  Consistency after 24 h incubation at 37° C.: Viscous liquid (for a viscous liquid in the range of 1-10 Pa S)
[3]; NAC 2.0% (40 mg), Hyase 50 μL
  Consistency after 24 h incubation at 37° C.: Viscous liquid (for a viscous liquid in the range of 1-10 Pa S)
[3]; NAC 4.0% (80 mg), Hyase 50 μL
  Consistency after 24 h incubation at 37° C.: Semisolid (for a semi-solid in the range of 50-70 Pa S)
[3]; NAC 8% (160 mg), Hyase 50 μL
  Consistency after 24 h incubation at 37° C.: Semisolid (for a semi-solid in the range of 50-70 Pa S)
[3]; NAC 10% (200 mg), Hyase 50 μL
  Consistency after 24 h incubation at 37° C.: Semisolid (for a semi-solid in the range of 50-70 Pa S)
[3]; NAC 20% (400 mg), Hyase 50 μL
  Consistency after 24 h incubation at 37° C.: Fluid liquid (for a fluid liquid were in the range of 1-500 mPa S)
[3]; Table 2: Hyase 50 μL + NAC 50 μL (400 mM stock, about 3.3%) 2 h at 23° C., then HA 1% 2 mL, 24 h room temperature
  Consistency: Solid (for a solid the results were in the range of 80-100 Pa S and higher)
[3]; Table 3: NAC 50 μL added to HA 1% 2 mL first (0.5% NAC final), 2 h, then Hyase 50 μL, 24 h room temperature
  Consistency: Fluid Liquid
[3]; Table 4: NAC 400 mg dry powder (20% final), HA 2 cc of 1%, Hyase 50 μL, 4° C.
  Consistency: Semisolid (for a semi-solid in the range of 50-70 Pa S)
[3]; Table 4: NAC 400 mg dry powder (20% final), HA 2 cc of 1%, Hyase 50 μL, 37° C., cell wraps: Viscous liquid
  Consistency: Viscous
[3]; Table 5: NAC 5% (2 mL), HA 40 mg dry powder, Hyase 50 μL, room temperature, cell wraps: Solid, no crystals
  Consistency: Solid, no
[3]; Table 5: NAC 10% (2 mL), HA 40 mg dry powder, Hyase 50 μL, room temperature, cell wraps: Solid, no crystals
  Consistency: Solid, no
